# From patent US20190365776A1, “THERAPEUTIC AGENT FOR OCULAR FUNDUS DISEASE” (KYUSHU UNIVERSITY, NATIONAL UNIVERSITY CORPORATION, priority 2013, published 2019)
# Columns and labels:
# [1] = system: mice OIR (Oxygen-Induced Retinopathy) model; assay: Mice OIR model, fluorescein fundus angiography; type: in vivo, C57BL/6JJcl mice; details: 0.8% solution, ocular instillation three times a day, day 17 after birth
# Description: C57BL/6JJcl mice born on the same day were reared in a 75%-oxygen environment from day 7 after birth, and were then transferred to a normal indoor environment on day 12 after birth to start administration by ocular instillation. Test groups were a saline instillation group (control), a 0.4% compound 1 solution instillation group, a 0.8% compound 1 solution instillation group, and a 0.4% fasudil solution instillation group, and saline, the compound 1 solution, or the fasudil solution was administered by ocular instillation three times a day. On day 17 after birth, ischemic retinal areas (non-perfused areas) and neovascular areas were quantified for evaluation by flat-mounting or fluorescein fundus angiography. More specifically, 1 g/kg of pentobarbital (Nembutal) was administered intraperitoneally for euthanasia under deep anesthesia, and then both eyeballs were excised and fixed with 4% paraformaldehyde (PFA) at 37° C. for 1 hour, and the corneal limbus was circumferentially incised to remove the cornea and iris from the eyeball. […] Then, the image of the flat-mounted retina was taken with a fluorescence microscope (BZ-9000, KEYENCE Corp, Osaka, Japan), and the proportion of the non-perfused area to the entire retina and the proportion of the neovascular area to the entire retina were calculated by the following formulas in NIH image J software. […]
# [2] = system: b-END3 (bEND.3) mouse brain microvascular endothelial cells; assay: Tight junction test: Claudin-5 immunostaining in b-END3 cells; type: cell-based; details: pretreatment 3 μM or 30 μM, 3 hours; VEGF 25 ng/mL or IL-6 10 ng/mL, 24 hours
# Description: According to a conventional method, b-END3 (bEND.3: ATCC CRL-2299™) cells, which are mouse brain microvascular endothelial cells, were subcultured in 3.5 cm dishes (9×10^5 cells/dish), and a test was started from day 6 after subculture. […]
# The cells after the test were subjected to immunostaining according to the following procedure to evaluate the expression of Claudin-5 or F-Actin. […] Then, a cover glass-sized cell sample was prepared by trimming with a cotton swab, enclosed with a Dako pen, blocked with 10% normal goat serum (10% normal goat serum ready-to-use (Invitrogen)) (30 min, ordinary temperature), and allowed to stand at 4° C. overnight. […]
structure (smiles),measurement,setting,value
"C[C@H]1CNCCCN1S(=O)(=O)c1cccc2cncc(F)c12 [compound 1, (S)-(−)-1-(4-fluoro-5-isoquinolinesulfonyl)-2-methyl-1,4-homopiperazine]",relative value of the neovascular area (saline instillation group = 100%),[1],41.6%
same,Claudin-5 expression decreased by VEGF stimulation or IL-6 stimulation,[2],improvement in Claudin-5 expression
